According to ChEMBL document CHEMBL1147193, “New 5-substituted thiazolo[3,2-b][1,2,4]triazol-6-ones: synthesis and anticancer evaluation” (2007):
Blank lines part the entries; values can stand above or below the compound they belong to.

What was measured:
Assay type in all cases: functional
[1] = tested on: SF-268; test: Anticancer activity against human SF268 cells assessed as growth of cells at 100 uM relative to untreated cells
[2] = tested on: DU-145; test: Growth inhibition of human DU145 cells after 48 hrs by SRB protein assay; conditions: DU-145, 48 h; for TGI: read-out: Log TGI (converted)
[3] = tested on: T47D; test: Growth inhibition of human T47D cells after 48 hrs by SRB protein assay; conditions: for TGI: read-out: Log TGI (converted)
[4] = tested on: NCI-H23; test: Growth inhibition of human NCI-H23 cells after 48 hrs by SRB protein assay; conditions: NCI-H23, 48 h; for TGI: read-out: Log TGI (converted)
[5] = tested on: PC-3; test: Growth inhibition of human PC3 cells after 48 hrs by SRB protein assay; conditions: PC-3, 48 h; for TGI: read-out: Log TGI (converted)
[6] = tested on: SK-MEL-28; test: Growth inhibition of human SK-MEL-28 cells after 48 hrs by SRB protein assay; conditions: SK-MEL-28, 48 h; for TGI: read-out: Log TGI (converted)
[7] = tested on: HL-60; test: Growth inhibition of human HL60 cells after 48 hrs by SRB protein assay; conditions: HL-60, 48 h; for TGI: read-out: Log TGI (converted)
[8] = tested on: LOX IMVI; test: Growth inhibition of human LOX IMVI cells after 48 hrs by SRB protein assay; conditions: for TGI: read-out: Log TGI (converted)
[9] = tested on: SF-268; test: Growth inhibition of human SF268 cells after 48 hrs by SRB protein assay; conditions: SF-268, 48 h; for TGI: read-out: Log TGI (converted)
[10] = tested on: SN12C; test: Growth inhibition of human SN12C cells after 48 hrs by SRB protein assay; conditions: for TGI: read-out: Log TGI (converted)
[11] = tested on: NCI-H460; test: Anticancer activity against human NCI-H460 cells assessed as growth of cells at 100 uM relative to untreated cells
[12] = tested on: A498; test: Growth inhibition of human A498 cells after 48 hrs by SRB protein assay; conditions: A498, 48 h; for TGI: read-out: Log TGI (converted)
[13] = tested on: SF-539; test: Growth inhibition of human SF539 cells after 48 hrs by SRB protein assay; conditions: SF-539, 48 h; for TGI: read-out: Log TGI (converted)
[14] = tested on: CAKI-1; test: Growth inhibition of human CAKI1 cells after 48 hrs by SRB protein assay; conditions: CAKI-1, 48 h; for TGI: read-out: Log TGI (converted)
[15] = tested on: SW-620; test: Growth inhibition of human SW620 cells after 48 hrs by SRB protein assay; conditions: SW-620, 48 h; for TGI: read-out: Log TGI (converted)
[16] = tested on: OVCAR-4; test: Growth inhibition of human OVCAR4 cells after 48 hrs by SRB protein assay; conditions: OVCAR-4, 48 h; for TGI: read-out: Log TGI (converted)
[17] = tested on: OVCAR-3; test: Growth inhibition of human OVCAR-3 cells after 48 hrs by SRB protein assay; conditions: OVCAR-3, 48 h; for TGI: read-out: Log TGI (converted)
[18] = tested on: 786-0; test: Growth inhibition of human 786-0 cells after 48 hrs by SRB protein assay; conditions: 786-0, 48 h; for TGI: read-out: Log TGI (converted)
[19] = tested on: HT-29; test: Growth inhibition of human HT29 cells after 48 hrs by SRB protein assay; conditions: HT-29, 48 h; for TGI: read-out: Log TGI (converted)
[20] = tested on: ACHN; test: Growth inhibition of human ACHN cells after 48 hrs by SRB protein assay; conditions: for TGI: read-out: Log TGI (converted)
[21] = tested on: SNB-19; test: Growth inhibition of human SNB19 cells after 48 hrs by SRB protein assay; conditions: SNB-19, 48 h; for TGI: read-out: Log TGI (converted)
[22] = tested on: SR; test: Growth inhibition of human SR cells after 48 hrs by SRB protein assay; conditions: for TGI: read-out: Log TGI (converted)
[23] = tested on: SNB-75; test: Growth inhibition of human SNB75 cells after 48 hrs by SRB protein assay; conditions: SNB-75, 48 h

- GI50 [2]: 57.5 µM
- GI50 [3]: 37.2 µM
- GI50 [4]: 20 µM
- GI50 [5]: 23.4 µM
- GI50 [6]: 26.9 µM
- GI50 [7]: 27.5 µM
- GI50 [15]: 37.2 µM
- GI50 [16]: 57.5 µM
- GI50 [17]: 18.6 µM
- GI50 [18]: 16.6 µM
- GI50 [19]: 47.9 µM
- GI50 [20]: 21.4 µM
Compound: COc1ccc(NC(=O)CC2Sc3ncnn3C2=O)cc1 (stereo not drawn)
- Activity [1]: 107%
- TGI [2]: > 100 µM
- TGI [3]: > 100 µM
- TGI [4]: 37.2 µM
- TGI [5]: 56.2 µM
- TGI [6]: > 57.5 µM
- TGI [7]: > 100 µM
- GI50 [8]: 21.9 µM
- TGI [8]: 42.7 µM
- GI50 [9]: > 100 µM
- TGI [9]: > 100 µM
- GI50 [10]: 25.1 µM
- TGI [10]: 56.2 µM
- Activity [11]: 0%
- GI50 [12]: 21.4 µM
- TGI [12]: 57.5 µM
- GI50 [13]: 26.9 µM
- TGI [13]: 55 µM
- GI50 [14]: 18.6 µM
- TGI [14]: 34.7 µM
- TGI [15]: > 100 µM
- TGI [16]: > 100 µM
- TGI [17]: 38 µM
- TGI [18]: 30.9 µM
- TGI [19]: > 100 µM
- TGI [20]: 47.9 µM

- GI50 [2]: > 100 µM
- GI50 [3]: 24 µM
- GI50 [4]: 23.4 µM
- GI50 [5]: 55 µM
- GI50 [6]: 22.9 µM
- GI50 [15]: 32.4 µM
- GI50 [16]: 31.6 µM
- GI50 [17]: 21.9 µM
- GI50 [18]: 20.4 µM
- GI50 [19]: 28.8 µM
- GI50 [20]: 17.4 µM
Compound: O=C(CC1Sc2ncnn2C1=O)Nc1ccc(Cl)cc1 (stereo not drawn)
- Activity [1]: 107%
- TGI [2]: > 100 µM
- TGI [3]: 61.7 µM
- TGI [4]: 70.8 µM
- TGI [5]: > 100 µM
- TGI [6]: 57.5 µM
- GI50 [8]: 20.4 µM
- TGI [8]: 45.7 µM
- GI50 [9]: > 100 µM
- TGI [9]: > 100 µM
- GI50 [10]: 22.9 µM
- TGI [10]: 53.7 µM
- Activity [11]: 0%
- GI50 [12]: > 100 µM
- TGI [12]: > 100 µM
- GI50 [13]: 31.6 µM
- TGI [13]: 74.1 µM
- GI50 [14]: > 100 µM
- TGI [14]: > 100 µM
- GI50 [21]: > 100 µM
- TGI [21]: > 100 µM
- TGI [15]: 79.4 µM
- TGI [16]: 83.2 µM
- TGI [17]: 51.3 µM
- TGI [18]: 43.7 µM
- TGI [19]: 75.9 µM
- TGI [20]: 30.9 µM

- GI50 [2]: 38.9 µM
- GI50 [3]: 18.2 µM
- GI50 [4]: 20.9 µM
- GI50 [5]: 26.9 µM
- GI50 [6]: 23.4 µM
- GI50 [7]: 19.5 µM
- GI50 [15]: 44.7 µM
- GI50 [16]: 31.6 µM
- GI50 [17]: 20 µM
- GI50 [18]: 16.6 µM
- GI50 [19]: 28.2 µM
- GI50 [20]: 15.1 µM
Compound: O=C(CC1Sc2ncnn2C1=O)Nc1ccc(Br)cc1 (stereo not drawn)
- Activity [1]: 100%
- TGI [2]: > 100 µM
- TGI [3]: 45.7 µM
- TGI [4]: 43.7 µM
- TGI [5]: 95.5 µM
- TGI [6]: 70.8 µM
- TGI [7]: > 100 µM
- GI50 [8]: 16.2 µM
- TGI [8]: 31.6 µM
- GI50 [9]: > 100 µM
- TGI [9]: > 100 µM
- GI50 [10]: 22.9 µM
- TGI [10]: 63.1 µM
- Activity [11]: 0%
- GI50 [12]: 12.3 µM
- TGI [12]: 57.5 µM
- GI50 [13]: 20.9 µM
- TGI [13]: 46.8 µM
- GI50 [14]: 20.4 µM
- TGI [14]: 43.7 µM
- TGI [15]: > 100 µM
- GI50 [22]: 18.2 µM
- TGI [22]: > 100 µM
- TGI [16]: > 100 µM
- TGI [17]: 37.2 µM
- TGI [18]: 30.2 µM
- TGI [19]: > 100 µM
- TGI [20]: 28.2 µM

- GI50 [2]: 39.8 µM
- GI50 [3]: 91.2 µM
- GI50 [5]: 53.7 µM
- GI50 [6]: 52.5 µM
- GI50 [7]: 6.46 µM
- GI50 [15]: 66.1 µM
- GI50 [16]: 34.7 µM
- GI50 [17]: 37.2 µM
- GI50 [18]: 51.3 µM
- GI50 [19]: 45.7 µM
- GI50 [20]: 81.3 µM
Compound: O=c1/c(=C/c2ccc(F)cc2)sc2ncnn12
- Activity [1]: 70%
- TGI [2]: > 100 µM
- TGI [3]: > 100 µM
- TGI [5]: > 100 µM
- TGI [6]: > 100 µM
- TGI [7]: > 100 µM
- GI50 [8]: 37.2 µM
- TGI [8]: > 100 µM
- GI50 [9]: 33.9 µM
- TGI [9]: > 100 µM
- GI50 [10]: 40.7 µM
- TGI [10]: > 100 µM
- Activity [11]: 13%
- GI50 [12]: 61.7 µM
- TGI [12]: > 100 µM
- GI50 [13]: 30.2 µM
- TGI [13]: 93.3 µM
- GI50 [14]: 69.2 µM
- TGI [14]: > 100 µM
- GI50 [21]: 63.1 µM
- TGI [21]: > 100 µM
- TGI [15]: > 100 µM
- GI50 [22]: 15.5 µM
- TGI [22]: > 100 µM
- TGI [16]: > 100 µM
- TGI [17]: > 100 µM
- GI50 [23]: 58.9 µM
- TGI ([23]; read-out: Log TGI (converted)): > 100 µM
- TGI [18]: > 100 µM
- TGI [19]: > 100 µM
- TGI [20]: > 100 µM
